Reference: ChEMBL document CHEMBL1255472, “Population pharmacokinetics of micafungin in neonates and young infants” (Antimicrob Agents Chemother, 2010)
≈ marks a conversion by molar mass, not a printed value. Starred links: 1 amine or outer side, 2 acyl side, 3 side chain; linkers in the order of their positions; H or OH if unused. Positions of bridges follow the written chain, without caps; N, C: chain ends. Non-standard residues stand in square brackets, D forms with d. Residues, ends and D or L forms follow the SMILES beside them. *: point of attachment. hTyr(3S-OH,4S-OH,3'-OSO3H) = N[C@H](C(=O)O)[C@H](O)[C@@H](O)c1ccc(O)c(OS(=O)(=O)O)c1; Orn(4R-OH,5R-OH) = O=C([C@H](C[C@@H](O)[C@@H](O)N[*:3])N[*:1])[*:2]; Pro(3S-OH,4S-Me) = C[C@H]1CN[C@H](C(=O)O)[C@H]1O; X1 = CCCCCOc1ccc(-c2cc(-c3ccc(C(=O)*)cc3)no2)cc1; Gln(3R-OH) = NC(=O)C[C@@H](O)[C@H](N)C(=O)O; Hyp = O=C(O)[C@@H]1C[C@@H](O)CN1

Tests used:
[1] = Dose normalized clearance in iv dosed adult human by HPLC; format: ADME, organism-based; details: in vivo
[2] = Volume of distribution in iv dosed adult human by HPLC; format: ADME, organism-based; details: in vivo
[3] = Volume of distribution in iv dosed human infant by HPLC; format: ADME, organism-based; details: in vivo
Candida albicans = test: Antifungal activity against Candida albicans; format: functional
[4] = AUC (0 to 24 hrs) in candidiasis patient at 8 mg/kg, iv by HPLC; format: ADME, organism-based; design: time < 24 hr, dose 8 mg/kg, route intravenous; details: human, plasma
[5] = AUC (0 to 24 hrs) in candidiasis patient at 12 mg/kg, iv by HPLC; format: ADME, organism-based; design: time < 24 hr, dose 12 mg/kg, route intravenous; details: human, plasma
[6] = Ratio of AUC in neonates with Candida albican infection to MIC for Candida albicans; format: functional
[7] = AUC (0 to 24 hrs) in candidiasis patient at 10 mg/kg, iv by HPLC; format: ADME, organism-based; design: time < 24 hr, dose 10 mg/kg, route intravenous; details: human, plasma

`CCCCCOc1ccc(-c2cc(-c3ccc(C(=O)N[C@H]4C[C@@H](O)[C@@H](O)NC(=O)[C@@H]5[C@@H](O)[C@@H](C)CN5C(=O)[C@H]([C@H](O)CC(N)=O)NC(=O)[C@H]([C@H](O)[C@@H](O)c5ccc(O)c(OS(=O)(=O)O)c5)NC(=O)[C@@H]5C[C@@H](O)CN5C(=O)[C@H]([C@@H](C)O)NC4=O)cc3)no2)cc1` [MICAFUNGIN] (X1-[Orn(4R-OH,5R-OH)]T[Hyp][hTyr(3S-OH,4S-OH,3'-OSO3H)][Gln(3R-OH)][Pro(3S-OH,4S-Me)]; lactam 1-C) gave a clearance [1] of 19.5 mL/min, a Vd [2] of 10.4 L and a Vd [3] of 10.3 L. For the same compound, the MIC (Candida albicans) was 0.125 µg/mL (≈ 0.0984 µM), the AUC(0-t) at 24 h [4] was less than 166 µg·h/mL and the AUC(0-t) at 24 h [5] was less than 166 µg·h/mL. It also gave a Ratio [6] of 1330 and an AUC(0-t) at 24 h [7] of less than 166 µg·h/mL.
